Results on 21 molecules are retold here after patent US9255085B2, “Carboxamide compounds and methods for using the same” (Rigel Pharmaceuticals, Inc., priority 2008, dated 2016).

The first experiment deals with AMPK. Put plainly: AMPK activation, enzyme-linked immunosorbent assay. It counts as biochemical. As to conditions: ELISA, Table 2. The method, then: Compounds 1-13 were assayed for their ability to activate AMPK using an enzyme-linked immunosorbent assay.
Compounds 14-16 were assayed for their ability to activate AMPK using an enzyme-linked immunosorbent assay.
Compounds 17-18 were assayed for their ability to activate AMPK using an enzyme-linked immunosorbent assay.
Compounds 19-22 were assayed for their ability to activate AMPK using an enzyme-linked immunosorbent assay.
Compounds 23-26 were assayed for their ability to activate AMPK using an enzyme-linked immunosorbent assay.
Compounds 27-33 were assayed for their ability to activate AMPK using an enzyme-linked immunosorbent assay.
Compounds 34-42 were assayed for their ability to activate AMPK using an enzyme-linked immunosorbent assay.
Consider `CC(C)(C)OC(=O)N1CCC(NC(=O)c2nc3ccc(OC4CCN(c5ccc(C(F)(F)F)cc5)CC4)cc3o2)CC1` [Compound 1, tert-butyl 4-(6-(1-(4-(trifluoromethyl)phenyl)piperidin-4-yloxy)benzo[d]oxazole-2-carboxamido)piperidine-1-carboxylate], for which the concentration for a half-maximal effect (EC50) was under 100 nM.
Still for that read-out and setting: for `N#Cc1ccc(CN2CCC(NC(=O)c3nc4ccc(OC5CCN(c6ccc(C(F)(F)F)cc6)CC5)cc4o3)CC2)cc1` [Compound 2, N-(1-(4-Cyanobenzyl)piperidin-4-yl)-6-(1-(4-(trifluoromethyl)phenyl)piperidin-4-yloxy)benzo[d]oxazole-2-carboxamide] the value was under 100 nM; for `O=C(NC1CCN(Cc2ccncc2)CC1)c1nc2ccc(OC3CCN(c4ccc(C(F)(F)F)cc4)CC3)cc2o1` [Compound 3, N-(1-(Pyridin-4-ylmethyl)piperidin-4-yl)-6-(1-(4-(trifluoromethyl)phenyl)piperidin-4-yloxy)benzo[d]oxazole-2-carboxamide], under 100 nM; for `O=C(NC1CCN(C(=O)c2ccc(F)cc2)CC1)c1nc2ccc(OC3CCN(c4ccc(C(F)(F)F)cc4)CC3)cc2o1` [Compound 4, N-(1-(4-Fluorobenzoyl)piperidin-4-yl)-6-(1-(4-(trifluoromethyl)phenyl)piperidin-4-yloxy)benzo[d]oxazole-2-carboxamide], under 100 nM.
The same measure, in the same setting: the result for `O=C(NC1CCNCC1)c1nc2ccc(OC3CCN(c4ccc(C(F)(F)F)cc4)CC3)cc2o1` [Compound 5, N-(Piperidin-4-yl)-6-(1-(4-(trifluoromethyl)phenyl)piperidin-4-yloxy)benzo[d]oxazole-2-carboxamide] reads 10000 to 100000 nM; that for `N#Cc1ccc(C(=O)N2CCC(NC(=O)c3nc4ccc(OC5CCN(c6ccc(C(F)(F)F)cc6)CC5)cc4o3)CC2)cc1` [Compound 6, N-(1-(4-Cyanobenzoyl)piperidin-4-yl)-6-(1-(4-(trifluoromethyl)phenyl)piperidin-4-yloxy)benzo[d]oxazole-2-carboxamide], under 100 nM; that for `O=C(c1nc2ccc(OC3CCN(c4ccc(C(F)(F)F)cc4)CC3)cc2o1)N1CC2CC1CN2Cc1ccncc1` (stereo not drawn) [Compound 8, (5-(pyridin-4-ylmethyl)-2,5-diazabicyclo[2.2.1]heptan-2-yl)(6-(1-(4-(trifluoromethyl)phenyl)piperidin-4-yloxy)benzo[d]oxazol-2-yl)methanone], 100 to 1000 nM.
Still for that read-out and setting: for `NC(=O)c1ccc(CN2CC3CC2CN3C(=O)c2nc3ccc(OC4CCN(c5ccc(C(F)(F)F)cc5)CC4)cc3o2)cc1` (stereo not drawn) [Compound 9, 4-((5-(6-(1-(4-(Trifluoromethyl)phenyl)piperidin-4-yloxy)benzo[d]oxazole-2-carbonyl)-2,5-diazabicyclo[2.2.1]heptan-2-yl)methyl)benzamide] the value was 100 to 1000 nM; for `N#Cc1ccc(CN2CC3CC2CN3C(=O)c2nc3ccc(OC4CCN(c5ccc(C(F)(F)F)cc5)CC4)cc3o2)cc1` (stereo not drawn) [Compound 10, 4-((5-(6-(1-(4-(Trifluoromethyl)phenyl)piperidin-4-yloxy)benzo[d]oxazole-2-carbonyl)-2,5-diazabicyclo[2.2.1]heptan-2-yl)methyl)benzonitrile], 100 to 1000 nM; for `O=C(c1ccncc1)N1CC2CC1CN2C(=O)c1nc2ccc(OC3CCN(c4ccc(C(F)(F)F)cc4)CC3)cc2o1` (stereo not drawn) [Compound 11, (5-Isonicotinoyl-2,5-diazabicyclo[2.2.1]heptan-2-yl)(6-(1-(4-(trifluoromethyl)phenyl)piperidin-4-yloxy)benzo[d]oxazol-2-yl)methanone], 100 to 1000 nM.
Molecule `N#Cc1ccc(C(=O)N2CC3CC2CN3C(=O)c2nc3ccc(OC4CCN(c5ccc(C(F)(F)F)cc5)CC4)cc3o2)cc1` (stereo not drawn) [Compound 12, 4-(5-(6-(1-(4-(trifluoromethyl)phenyl)piperidin-4-yloxy)benzo[d]oxazole-2-carbonyl)-2,5-diazabicyclo[2.2.1]heptane-2-carbonyl)benzonitrile] had an EC50 of under 100 nM.
Still for that read-out and setting: for `O=C(c1ccc(F)cc1)N1CC2CC1CN2C(=O)c1nc2ccc(OC3CCN(c4ccc(C(F)(F)F)cc4)CC3)cc2o1` (stereo not drawn) [Compound 13, (5-(4-fluorobenzoyl)-2,5-diazabicyclo[2.2.1]heptan-2-yl)(6-(1-(4-(trifluoromethyl)phenyl)piperidin-4-yloxy)benzo[d]oxazol-2-yl)methanone] the value was under 100 nM.

The experiment is the same for the next values; noted with them: ELISA, Table 3.
As to `CC(C)(C)OC(=O)N1CCC(NC(=O)c2nc3ccc(OC4CCN(c5ccc(C(F)(F)F)cc5)CC4)cc3s2)CC1` [Compound 14, tert-butyl 4-(6-(1-(4-(trifluoromethyl)phenyl)piperidin-4-yloxy)benzo[d]thiazole-2-carboxamido)piperidine-1-carboxylate], the EC50 was in the range of 1000 to 10000 nM.
Same read-out and setting: for `O=C(NC1CCN(Cc2ccncc2)CC1)c1nc2ccc(OC3CCN(c4ccc(C(F)(F)F)cc4)CC3)cc2s1` [Compound 15, N-(1-(Pyridin-4-ylmethyl)piperidin-4-yl)-6-(1-(4-(trifluoromethyl)phenyl)piperidin-4-yloxy)benzo[d]thiazole-2-carboxamide] the value was 100 to 1000 nM; for `N#Cc1ccc(CN2CCC(NC(=O)c3nc4ccc(OC5CCN(c6ccc(C(F)(F)F)cc6)CC5)cc4s3)CC2)cc1` [Compound 16, N-(1-(4-Cyanobenzyl)piperidin-4-yl)-6-(1-(4-(trifluoromethyl)phenyl)piperidin-4-yloxy)benzo[d]thiazole-2-carboxamide], 100 to 1000 nM.

The same experiment, now with this note: ELISA, Table 4.
`O=C(NC1CCN(Cc2ccncc2)CC1)c1cn2ccc(OC3CCN(c4ccc(C(F)(F)F)cc4)CC3)cc2n1` [Compound 17, N-(1-(Pyridin-4-ylmethyl)piperidin-4-yl)-7-(1-(4-(trifluoromethyl)phenyl)piperidin-4-yloxy)imidazo[1,2-a]pyridine-2-carboxamide] registered a 50% effective concentration (EC50) of under 100 nM.
With `N#Cc1ccc(CN2CCC(NC(=O)c3cn4ccc(OC5CCN(c6ccc(C(F)(F)F)cc6)CC5)cc4n3)CC2)cc1` [Compound 18, N-(1-(4-Cyanobenzyl)piperidin-4-yl)-7-(1-(4-(trifluoromethyl)phenyl)piperidin-4-yloxy)imidazo[1,2-a]pyridine-2-carboxamide], the EC50 was under 100 nM.

The experiment is the same for the next values; noted with them: ELISA, Table 5.
The molecule `CC(C)(C)OC(=O)N1CCC(NC(=O)c2cnc(OC3CCN(c4ccc(C(F)(F)F)cc4)CC3)cn2)CC1` [Compound 19, tert-butyl 4-(5-(1-(4-(trifluoromethyl)phenyl)piperidin-4-yloxy)pyrazine-2-carboxamido)piperidine-1-carboxylate] had a 50% effective concentration (EC50) of 1000 to 10000 nM.
On the same count and under the same terms, the result for `O=C(NC1CCNCC1)c1cnc(OC2CCN(c3ccc(C(F)(F)F)cc3)CC2)cn1` [Compound 20, N-(piperidin-4-yl)-5-(1-(4-(trifluoromethyl)phenyl)piperidin-4-yloxy)pyrazine-2-carboxamide] reads over 100000 nM; that for `O=C(NC1CCN(Cc2ccncc2)CC1)c1cnc(OC2CCN(c3ccc(C(F)(F)F)cc3)CC2)cn1` [Compound 21, N-(1-(Pyridin-4-ylmethyl)piperidin-4-yl)-5-(1-(4-(trifluoromethyl)phenyl)piperidin-4-yloxy)pyrazine-2-carboxamide], under 100 nM; that for `N#Cc1ccc(CN2CCC(NC(=O)c3cnc(OC4CCN(c5ccc(C(F)(F)F)cc5)CC4)cn3)CC2)cc1` [Compound 22, N-(1-(4-Cyanobenzyl)piperidin-4-yl)-5-(1-(4-(trifluoromethyl)phenyl)piperidin-4-yloxy)pyrazine-2-carboxamide], under 100 nM.
